Results: ChEMBL document CHEMBL3044666, “Synthesis, biological evaluation and molecular modeling studies of Schiff bases derived from 4-methylsalicylic acid as potential immunosuppressive agents” (Med Chem Res, 2013)

Legend:
[1] = Immunosuppressive activity in BALB/C Mus musculus (mouse) lymph node cells assessed as inhibition of conA-induced proliferation incubated at 24 hr post conA-challenge measured after 72 hr by MTT assay; type: functional
[2] = Cytotoxicity against BALB/C Mus musculus (mouse) lymph node cells after 24 hr by MTT assay; type: cell-based
[3] = Selectivity index, ratio of CC50 for BALB/C Mus musculus (mouse) lymph node cells to IC50 for conA-induced BALB/C lymph node cells; type: functional
[4] = species: Mus musculus; experiment: Induction of apoptosis in ConA-induced BALB/C Mus musculus (mouse) lymph node cells after 24 hr by AnnexinV-FITC based flow cytometric analysis; type: functional
[5] = target: Phosphatidylinositol 4,5-bisphosphate 3-kinase catalytic subunit gamma isoform (Homo sapiens, UniProt P48736); experiment: Inhibition of PI3Kgamma (unknown origin) using [33gammaP]ATP and phosphotidylinositol as substrate by scintillation proximity assay
[6] = species: Mus musculus; experiment: Induction of apoptosis in ConA-induced BALB/C Mus musculus (mouse) lymph node cells assessed as caspase3 activation after 24 hr by Western blot analysis; type: functional
[7] = Ratio of CsA CC50 to compound CC50 for BALB/C Mus musculus (mouse) lymph node cells; type: ADME
[8] = target: Phosphatidylinositol 4,5-bisphosphate 3-kinase catalytic subunit gamma isoform (Mus musculus) (UniProt Q9JHG7); experiment: Inhibition of PI3Kgamma-mediated AKT Ser473 phosphorylation in ConA-induced BALB/C Mus musculus (mouse) lymph node cells after 24 hr by Western blot analysis
Phosphatidylinositol 4,5-bisphosphate 3-kinase catalytic subunit gamma isoform (Mus musculus), sequence (Q9JHG7 whole entry, looked up, canonical isoform): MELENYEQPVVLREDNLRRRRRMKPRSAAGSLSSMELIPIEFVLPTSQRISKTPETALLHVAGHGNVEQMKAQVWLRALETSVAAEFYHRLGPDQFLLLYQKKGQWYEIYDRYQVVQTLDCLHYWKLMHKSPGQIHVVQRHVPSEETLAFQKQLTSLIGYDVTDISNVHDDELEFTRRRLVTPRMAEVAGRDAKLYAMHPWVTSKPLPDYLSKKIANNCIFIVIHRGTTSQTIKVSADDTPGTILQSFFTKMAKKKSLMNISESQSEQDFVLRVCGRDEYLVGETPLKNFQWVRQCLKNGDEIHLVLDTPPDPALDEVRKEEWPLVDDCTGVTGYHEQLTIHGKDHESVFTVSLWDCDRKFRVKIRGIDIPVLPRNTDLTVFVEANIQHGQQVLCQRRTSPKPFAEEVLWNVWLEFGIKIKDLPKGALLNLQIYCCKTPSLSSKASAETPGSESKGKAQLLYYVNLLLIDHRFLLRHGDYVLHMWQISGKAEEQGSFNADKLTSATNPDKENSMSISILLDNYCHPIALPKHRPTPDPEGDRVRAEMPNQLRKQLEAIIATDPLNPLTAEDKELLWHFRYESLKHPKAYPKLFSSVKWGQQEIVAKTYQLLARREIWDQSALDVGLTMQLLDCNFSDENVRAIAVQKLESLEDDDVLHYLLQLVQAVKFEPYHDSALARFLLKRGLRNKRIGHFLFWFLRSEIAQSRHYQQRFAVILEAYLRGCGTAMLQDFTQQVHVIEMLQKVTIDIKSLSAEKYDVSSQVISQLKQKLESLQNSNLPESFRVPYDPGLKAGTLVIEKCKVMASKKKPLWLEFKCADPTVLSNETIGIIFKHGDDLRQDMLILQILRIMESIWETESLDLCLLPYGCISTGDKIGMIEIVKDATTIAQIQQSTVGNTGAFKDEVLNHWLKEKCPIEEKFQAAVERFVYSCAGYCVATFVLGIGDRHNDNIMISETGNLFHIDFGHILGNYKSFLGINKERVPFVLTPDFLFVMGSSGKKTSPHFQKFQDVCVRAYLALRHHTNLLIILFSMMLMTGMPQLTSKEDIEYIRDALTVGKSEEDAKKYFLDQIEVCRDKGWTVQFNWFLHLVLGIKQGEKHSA

Phosphatidylinositol 4,5-bisphosphate 3-kinase catalytic subunit gamma isoform, sequence (P48736 whole entry, canonical isoform): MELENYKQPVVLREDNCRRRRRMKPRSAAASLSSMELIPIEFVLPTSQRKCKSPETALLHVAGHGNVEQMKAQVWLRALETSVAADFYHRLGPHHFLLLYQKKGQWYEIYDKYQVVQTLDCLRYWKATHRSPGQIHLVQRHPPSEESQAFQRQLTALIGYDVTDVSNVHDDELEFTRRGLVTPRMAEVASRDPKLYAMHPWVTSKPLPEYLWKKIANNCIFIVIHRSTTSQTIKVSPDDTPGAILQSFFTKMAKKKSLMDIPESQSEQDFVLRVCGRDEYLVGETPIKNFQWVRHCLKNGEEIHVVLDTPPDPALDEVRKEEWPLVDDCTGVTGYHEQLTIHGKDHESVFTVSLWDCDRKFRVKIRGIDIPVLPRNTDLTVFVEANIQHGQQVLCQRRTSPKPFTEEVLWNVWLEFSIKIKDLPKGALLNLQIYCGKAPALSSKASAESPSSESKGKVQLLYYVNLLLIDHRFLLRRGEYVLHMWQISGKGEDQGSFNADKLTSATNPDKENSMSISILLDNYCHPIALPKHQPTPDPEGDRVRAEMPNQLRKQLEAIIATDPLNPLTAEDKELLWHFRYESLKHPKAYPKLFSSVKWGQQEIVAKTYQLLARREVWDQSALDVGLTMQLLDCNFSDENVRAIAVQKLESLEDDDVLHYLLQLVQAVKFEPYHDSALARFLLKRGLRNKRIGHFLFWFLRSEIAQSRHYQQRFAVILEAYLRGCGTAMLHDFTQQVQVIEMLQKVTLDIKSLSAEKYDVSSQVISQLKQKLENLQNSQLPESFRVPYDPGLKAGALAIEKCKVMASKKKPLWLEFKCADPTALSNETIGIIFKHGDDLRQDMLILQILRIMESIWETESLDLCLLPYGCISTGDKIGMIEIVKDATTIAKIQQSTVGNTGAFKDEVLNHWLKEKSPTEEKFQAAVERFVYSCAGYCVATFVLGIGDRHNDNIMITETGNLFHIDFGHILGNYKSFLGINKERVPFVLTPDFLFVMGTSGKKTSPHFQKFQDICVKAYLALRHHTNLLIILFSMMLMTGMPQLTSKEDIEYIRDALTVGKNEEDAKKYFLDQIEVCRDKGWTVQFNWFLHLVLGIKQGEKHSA

SMILES	IC50 [1]	CC50 at 24 h [2]	Ratio CC50/IC50 [3]	Activity [4]	IC50 [5]	Activity [6]	selectivity ratio [7]	inhibition [8]
Cc1ccc(C(=O)N/N=C/c2ccc([N+](=O)[O-])cc2)c(O)c1	24.3 µM	734 µM	30.23					
Cc1ccc(C(=O)N/N=C/c2ccccc2Cl)c(O)c1	19.2 µM	125 µM	6.51					
Cc1ccc(C(=O)N/N=C/c2cccc(Br)c2)c(O)c1	28.3 µM	113 µM	4.01					
Cc1ccc(C(=O)N/N=C/c2cccc(Cl)c2)c(O)c1	24.4 µM	636 µM	30.89					
Cc1ccc(C(=O)N/N=C/c2ccc(F)cc2)c(O)c1	26.7 µM	568 µM	21.26					
Cc1ccc(C(=O)N/N=C/c2cccc(F)c2)c(O)c1	31.2 µM	166 µM	3.72					
Cc1ccc(C(=O)N/N=C/c2ccccc2)c(O)c1	53.9 µM	578 µM	10.74					
Cc1ccc(C(=O)N/N=C/c2ccccc2O)c(O)c1	1.02 µM	761 µM	745.65	Dose-dependent effect	2.17 µM	Dose-dependent effect	50	Dose-dependent effect
Cc1ccc(C(=O)N/N=C/c2ccc(Cl)cc2)c(O)c1	12.3 µM	116 µM	9.45					
Cc1ccc(C(=O)N/N=C/c2ccccc2[N+](=O)[O-])c(O)c1	> 100 µM	644 µM	<6.44					
Cc1ccc(C(=O)N/N=C/c2ccc(Cl)cc2Cl)c(O)c1	9.78 µM	291 µM	29.79					
Cc1ccc(C(=O)N/N=C/c2ccc(N(C)C)cc2)c(O)c1	> 100 µM	732 µM	<7.32					
Cc1ccc(C(=O)N/N=C/c2cc(Cl)cc(Cl)c2O)c(O)c1	1.51 µM	708 µM	468.72	Dose-dependent effect	4.81 µM			
COc1ccc(/C=N/NC(=O)c2ccc(C)cc2O)cc1	> 100 µM	723 µM	<7.23					
Cc1ccc(C(=O)N/N=C/c2cc(Br)cc(Br)c2O)c(O)c1	2.02 µM	979 µM	484.63		7.12 µM			
COc1cccc(/C=N/NC(=O)c2ccc(C)cc2O)c1	20.6 µM	672 µM	32.64					
Cc1ccc(C(=O)N/N=C/c2ccccc2F)c(O)c1	42.1 µM	362 µM	8.61					
Cc1ccc(C(=O)N/N=C/c2cc(Cl)ccc2O)c(O)c1	1.29 µM	560 µM	433.84		3.69 µM			
Cc1ccc(C(=O)N/N=C/c2cc(Br)ccc2O)c(O)c1	1.09 µM	1500 µM	1371.95		2.6 µM			
